According to PubChem BioAssay AID222 (DTP/NCI, 2004):
“And” between values parts separate entries of the source, which are not always exact repeats. Equal values may be shown once. Inconclusive results and toxic doses are left out. Starred links: 1 amine or outer side, 2 acyl side, 3 side chain; linkers in the order of their positions; H or OH if unused. Positions of bridges follow the written chain, without caps; N, C: chain ends. Non-standard residues stand in square brackets, D forms with d. Residues, ends and D or L forms follow the SMILES beside them. Chains are numbered I, II in the order given. Actinocin(9to1) = Cc1c2oc3c(C)ccc(C(=O)[*:1])c3nc-2c(C(=O)[*:2])c(N)c1=O; aThr = C[C@H](O)[C@H](N)C(=O)O; NMeV = CN[C@H](C(=O)O)C(C)C; Sar = CNCC(=O)O

Tested on: C57BL/6 mice, intracerebral ependymoblastoma, median survival T/C
Assay: NCI In Vivo Anticancer Drug Screen. Data for tumor model Ependymoblastoma (intracerebral) in C57BL/6 mice
Details: endpoint: median survival time, higher = longer survival
Method: The antitumor activity of compounds was measured in mice bearing transplantable tumors. Survival or tumor size were measured and the results are expressed as the measurement made in the treated group (T) divided by the measurement made in the vehicle treated control group (C). The tumor model used in this assay is Ependymoblastoma (intracerebral) in C57BL/6 mice

[1] = dose: 1.0 mg/kg/injection, schedule: Q01DX005 (ip), vehicle: Klucel (hydroxypropylcellulose) (HPC)
[2] = dose: 2.0 mg/kg/injection, schedule: Q01DX005 (ip), vehicle: Klucel (hydroxypropylcellulose) (HPC)
[3] = dose: 4.0 mg/kg/injection, schedule: Q01DX005 (ip), vehicle: Klucel (hydroxypropylcellulose) (HPC)
[4] = dose: 8.0 mg/kg/injection, schedule: Q01DX005 (ip), vehicle: Klucel (hydroxypropylcellulose) (HPC)
[5] = dose: 16.0 mg/kg/injection, schedule: Q01DX005 (ip), vehicle: Klucel (hydroxypropylcellulose) (HPC)
[6] = dose: 16.0 mg/kg/injection, schedule: Q01DX005 (ip), vehicle: saline with Tween-80
[7] = dose: 32.0 mg/kg/injection, schedule: Q01DX005 (ip), vehicle: saline with Tween-80
[8] = dose: 64.0 mg/kg/injection, schedule: Q01DX005 (ip), vehicle: saline with Tween-80
[9] = dose: 90.0 mg/kg/injection, schedule: Q01DX005 (ip), vehicle: saline with Tween-80
[10] = dose: 180.0 mg/kg/injection, schedule: Q01DX005 (ip), vehicle: saline with Tween-80

O=C(O)CCCc1ccc(N(CCCl)CCCl)cc1
T/C (dose: 0.12 mg/kg/injection, schedule: Q01DX005 (ip), vehicle: Klucel (hydroxypropylcellulose) (HPC)): 115 % of control
T/C (dose: 0.25 mg/kg/injection, schedule: Q01DX005 (ip), vehicle: Klucel (hydroxypropylcellulose) (HPC)): 110 % of control
T/C [1]: 100 % of control
T/C (dose: 2.0 mg/kg/injection, schedule: Q01DX001 (ip), vehicle: Klucel (hydroxypropylcellulose) (HPC)): 100 % of control
T/C [2]: 100 % of control and 111 % of control and 120 % of control
T/C (dose: 4.0 mg/kg/injection, schedule: Q01DX001 (ip), vehicle: Klucel (hydroxypropylcellulose) (HPC)): 106 % of control
T/C [3]: 107 % of control and 109 % of control and 122 % of control
T/C (dose: 8.0 mg/kg/injection, schedule: Q01DX001 (ip), vehicle: Klucel (hydroxypropylcellulose) (HPC)): 105 % of control
T/C [4]: 109 % of control and 110 % of control and 122 % of control
T/C [5]: 96 % of control and 122 % of control

COc1ccc2c(c1O)-c1cc(O)cc3c1C(C2)N(CCCl)CC3 (configuration not stated)
T/C (dose: 4.0 mg/kg/injection, schedule: Q01DX005 (ip), vehicle: saline with Tween-80): 95 % of control and 98 % of control
T/C (dose: 8.0 mg/kg/injection, schedule: Q01DX005 (ip), vehicle: saline with Tween-80): 98 % of control
T/C [6]: 94 % of control and 100 % of control
T/C [7]: 110 % of control

Cc1c2oc3c(C)ccc(C(=O)N[C@@H]4C(=O)N[C@H](C(C)C)C(=O)N5CCC[C@H]5C(=O)N(C)CC(=O)N(C)[C@@H](C(C)C)C(=O)O[C@H]4C)c3nc-2c(C(=O)N[C@@H]2C(=O)N[C@H](C(C)C)C(=O)N3CCC[C@H]3C(=O)N(C)CC(=O)N(C)[C@@H](C(C)C)C(=O)O[C@H]2C)c(N)c1=O (I: [aThr][dV]P[Sar][NMeV] / II: [aThr][dV]P[Sar][NMeV]; ester I:1-I:C, II:1-II:C; linker I:N-II:N via Actinocin(9to1))
T/C (dose: 12.5 micrograms/kg/injection, schedule: Q01DX005 (ip), vehicle: saline): 116 % of control
T/C (dose: 25.0 micrograms/kg/injection, schedule: Q01DX005 (ip), vehicle: saline): 97 % of control
T/C (dose: 50.0 micrograms/kg/injection, schedule: Q01DX005 (ip), vehicle: saline): 101 % of control

O=C(CCCN1CCC(O)(c2cccc(C(F)(F)F)c2)CC1)c1ccc(F)cc1
T/C (dose: 25.0 mg/kg/injection, schedule: Q04DX003 (ip), vehicle: Klucel (hydroxypropylcellulose) (HPC)): 103 % of control
T/C (dose: 50.0 mg/kg/injection, schedule: Q04DX003 (ip), vehicle: Klucel (hydroxypropylcellulose) (HPC)): 97 % of control

Nc1ccnc(=O)[nH]1
T/C [8]: 95 % of control
T/C (dose: 128.0 mg/kg/injection, schedule: Q01DX005 (ip), vehicle: saline with Tween-80): 90 % of control
T/C (dose: 256.0 mg/kg/injection, schedule: Q01DX005 (ip), vehicle: saline with Tween-80): 104 % of control
T/C (dose: 512.0 mg/kg/injection, schedule: Q01DX005 (ip), vehicle: saline with Tween-80): 87 % of control
T/C (dose: 1024.0 mg/kg/injection, schedule: Q01DX005 (ip), vehicle: saline with Tween-80): 107 % of control

CCN(CC)CCOc1ccc(/C(=C(\Cl)c2ccccc2)c2ccccc2)cc1
T/C [4]: 97 % of control and 99 % of control
T/C [5]: 97 % of control and 108 % of control
T/C (dose: 32.0 mg/kg/injection, schedule: Q01DX005 (ip), vehicle: Klucel (hydroxypropylcellulose) (HPC)): 95 % of control and 112 % of control
T/C (dose: 32.0 mg/kg/injection, schedule: Q01DX005 (oral), vehicle: Klucel (hydroxypropylcellulose) (HPC)): 101 % of control
T/C (dose: 64.0 mg/kg/injection, schedule: Q01DX005 (ip), vehicle: Klucel (hydroxypropylcellulose) (HPC)): 88 % of control and 95 % of control
T/C (dose: 64.0 mg/kg/injection, schedule: Q01DX005 (oral), vehicle: Klucel (hydroxypropylcellulose) (HPC)): 104 % of control
T/C (dose: 128.0 mg/kg/injection, schedule: Q01DX005 (oral), vehicle: Klucel (hydroxypropylcellulose) (HPC)): 96 % of control

CN(C)C(=O)N(CCCl)N=O
T/C (dose: 16.0 mg/kg/injection, schedule: Q01DX001 (ip), vehicle: other): 154 % of control
T/C (dose: 20.0 mg/kg/injection, schedule: Q01DX001 (ip), vehicle: other): 279 % of control

O=C(N[C@H](CO)[C@H](O)c1ccc([N+](=O)[O-])cc1)C(Cl)Cl
T/C [9]: 97 % of control
T/C [10]: 95 % of control and 100 % of control
T/C (dose: 360.0 mg/kg/injection, schedule: Q01DX005 (ip), vehicle: saline with Tween-80): 87 % of control and 101 % of control
T/C (dose: 720.0 mg/kg/injection, schedule: Q01DX005 (ip), vehicle: saline with Tween-80): 98 % of control

S=c1nc[nH]c2nc[nH]c12
T/C (dose: 10.0 mg/kg/injection, schedule: Q01DX001 (ip), vehicle: Klucel (hydroxypropylcellulose) (HPC)): 103 % of control
T/C (dose: 10.0 mg/kg/injection, schedule: Q01DX005 (ip), vehicle: Klucel (hydroxypropylcellulose) (HPC)): 89 % of control and 103 % of control
T/C (dose: 20.0 mg/kg/injection, schedule: Q01DX001 (ip), vehicle: Klucel (hydroxypropylcellulose) (HPC)): 91 % of control
T/C (dose: 20.0 mg/kg/injection, schedule: Q01DX005 (ip), vehicle: Klucel (hydroxypropylcellulose) (HPC)): 107 % of control and 122 % of control
T/C (dose: 40.0 mg/kg/injection, schedule: Q01DX001 (ip), vehicle: Klucel (hydroxypropylcellulose) (HPC)): 109 % of control
T/C (dose: 80.0 mg/kg/injection, schedule: Q01DX001 (ip), vehicle: Klucel (hydroxypropylcellulose) (HPC)): 113 % of control
T/C (dose: 160.0 mg/kg/injection, schedule: Q01DX001 (ip), vehicle: Klucel (hydroxypropylcellulose) (HPC)): 102 % of control

C[n+]1ccc(Nc2ccc(NC(=O)c3ccc(Nc4cc[n+](C)c5ccc(N)cc45)cc3)cc2)cc1
T/C [1]: 95 % of control
T/C [2]: 113 % of control
T/C [3]: 108 % of control
T/C [4]: 113 % of control

O=c1c(O)c(-c2ccc(O)c(O)c2)oc2cc(O)cc(O)c12
T/C (dose: 12.5 mg/kg/injection, schedule: Q01DX005 (ip), vehicle: Klucel (hydroxypropylcellulose) (HPC)): 95 % of control
T/C (dose: 12.5 mg/kg/injection, schedule: Q01DX005 (ip), vehicle: other): 107 % of control
T/C (dose: 25.0 mg/kg/injection, schedule: Q01DX005 (ip), vehicle: Klucel (hydroxypropylcellulose) (HPC)): 104 % of control
T/C (dose: 25.0 mg/kg/injection, schedule: Q01DX005 (ip), vehicle: other): 93 % of control
T/C (dose: 50.0 mg/kg/injection, schedule: Q01DX005 (ip), vehicle: Klucel (hydroxypropylcellulose) (HPC)): 100 % of control
T/C (dose: 50.0 mg/kg/injection, schedule: Q01DX005 (ip), vehicle: other): 91 % of control
T/C (dose: 100.0 mg/kg/injection, schedule: Q01DX005 (ip), vehicle: Klucel (hydroxypropylcellulose) (HPC)): 99 % of control
T/C (dose: 100.0 mg/kg/injection, schedule: Q01DX005 (ip), vehicle: other): 102 % of control
T/C (dose: 200.0 mg/kg/injection, schedule: Q01DX005 (ip), vehicle: other): 105 % of control

Nc1ccc(S(=O)(=O)c2ccc(N)cc2)cc1
T/C (dose: 12.5 mg/kg/injection, schedule: Q01DX005 (ip), vehicle: saline with Tween-80): 108 % of control
T/C (dose: 25.0 mg/kg/injection, schedule: Q01DX005 (ip), vehicle: saline with Tween-80): 108 % of control
T/C (dose: 45.0 mg/kg/injection, schedule: Q01DX005 (ip), vehicle: saline with Tween-80): 98 % of control and 102 % of control
T/C (dose: 50.0 mg/kg/injection, schedule: Q01DX005 (ip), vehicle: saline with Tween-80): 87 % of control
T/C [9]: 96 % of control and 98 % of control
T/C (dose: 100.0 mg/kg/injection, schedule: Q01DX005 (ip), vehicle: saline with Tween-80): 100 % of control
T/C [10]: 101 % of control and 87 % of control
T/C (dose: 200.0 mg/kg/injection, schedule: Q01DX005 (ip), vehicle: saline with Tween-80): 86 % of control

CC/C(=C(/CC)c1ccc(O)cc1)c1ccc(O)cc1
T/C (dose: 8.0 mg/kg/injection, schedule: Q01DX005 (ip), vehicle: saline): 94 % of control
T/C [6]: 101 % of control
T/C (dose: 16.0 mg/kg/injection, schedule: Q01DX005 (ip), vehicle: saline): 100 % of control
T/C [7]: 112 % of control
T/C (dose: 32.0 mg/kg/injection, schedule: Q01DX005 (ip), vehicle: saline): 99 % of control
T/C [8]: 100 % of control
T/C (dose: 64.0 mg/kg/injection, schedule: Q01DX005 (ip), vehicle: saline): 110 % of control
